Reference: US20260234165A1, “MACROCYCLIC COMPOUNDS, PREPARATION METHOD THEREFOR, AND USE THEREOF” (GENFLEET THERAPEUTICS (SHANGHAI) INC., priority 2004, published 2026)
Read-outs that look alike come from different tables or passages of the source.

Columns and labels:
[1] = test system: p-ERK in AsPC-1 cells (KRAS G12D mutation); assay: Cell p-ERK assay (HTRF) in AsPC-1 cells; type: cell-based, human; details: AsPC-1 cells, 3 h compound incubation, HTRF p-ERK T202/Y204, read-out: AsPC-1 p-ERK IC50
Method in brief: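 AsPC-1 (10000/well) or NCI-H441 (20000/well) cells were seeded in RPMI-1640 with 10% FBS, grown overnight, then exposed to 3.16-fold compound dilutions (0.1% DMSO) for 3 h at 37 °C. Lysates were read for phospho-ERK T202/Y204 by HTRF; IC50 came from four-parameter fits of inhibition versus DMSO and blank wells.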

[2] = Pharmacokinetic study in rats; type: in vivo, Sprague-Dawley (SD) rats; details: male SD rats; for CL / clearance: IV; for AUC / Cmax: PO (intragastric), dose 10 mg/kg
Description: A total of 6 healthy adult male Sprague-Dawley (SD) rats were provided by Zhejiang Vital River Laboratory Animal Technology Co., Ltd. For each test compound, 6 healthy adult male SD rats were selected and randomly divided into 2 groups: an intravenous administration (IV) group and an intragastric administration (PO) group. The LC-MS/MS method was used to determine the drug concentrations in the plasma of rats at different time points after intravenous and intragastric administration of the test compounds. This experiment was intended to investigate the pharmacokinetic performance of the test compounds in rats and to evaluate the pharmacokinetic characteristics. Each drug used in the experiment was prepared from the test compound powder: An appropriate amount of test compound powder was weighed out, and appropriate amounts of DMSO, a 10% aqueous Solutol HS 15 solution, and a 6% aqueous HP-β-CD solution were sequentially added according to a volume ratio of 5:10:85. The mixture was vortexed and sonicated until clarification. The final concentration of the drug in the IV group was 0.5 mg/mL, and the final concentration of the drug in the PO group was 1 mg/mL; the concentrations could be adjusted according to actual needs. For the drug in the PO group of Z504, an appropriate amount of test compound powder was weighed out, and an appropriate amount of 0.5% MC+0.2% Tween 80 aqueous solution was added. The mixture was well mixed by vortexing to give a 1 mg/mL homogeneous suspension: the concentration could be adjusted according to actual needs.
All experimental rats were fasted overnight, and food intake was resumed 4 h after administration. For the rats in the IV group, the administration volume was set at 2 mL/kg, with Z554 and Z915 administered at a dose of 0.5 mg/kg and the other compounds at a dose of 1 mg/kg. For the rats in the PO group, the administration volume was 10 mL/kg and the dose was 10 mg/kg. The administration amount was adjusted according to the body weight of the rats on the day of administration. In the experiment, blood samples were collected from the rats in the IV group at multiple time points (0.0833 h, 0.25 h, 0.5 h, 1 h, 2 h, 4 h, 7 h, and 24 h) after administration, while blood samples were collected from the PO group at 0.25 h, 0.5 h, 1 h, 2 h, 4 h, 7 h, and 24 h after administration, with approximately 100 μL collected each time via the orbital blood collection method.
The blood samples were placed in centrifuge tubes containing EDTA-K2 and centrifuged at 8000 rpm for 4 min within 30 min to separate the supernatant plasma. The resulting plasma samples were stored at −20° C. for later use. For sample analysis, 20 μL of each of plasma samples and calibration standards was added to a 96-well plate, and 160 μL of acetonitrile containing 100 ng/mL tolbutamide was added. The samples were vortexed for 5 min for uniform mixing, and then centrifuged at 4000 rpm for 15 min. After the centrifugation was completed, 50 μL of supernatant was added to a 96-well plate containing 150 μL of deionized water. The plate was then sealed and shaken for uniform mixing. Sample analysis was performed by LC-MS/MS.
The sampling volume could be adjusted according to actual needs, but the final concentration should be kept unchanged.

[3] = Sprague-Dawley, rat, plasma, read-out: AUC
[4] = Sprague-Dawley, rat, plasma, read-out: Cmax
[5] = Sprague-Dawley, rat, plasma, dose 1 mg/kg

Structure (SMILES): CCn1c(-c2cc(C#CCN3CCOC[C@H]3C)cnc2[C@H](C)OC)c2c3cc(ccc31)-c1csc(n1)C[C@H](NC(=O)[C@H]1[C@H](C)[C@@H]1C)C(=O)N1CCCC(N1)C(=O)OCC(C)(C)C2 (atropisomer, axis not shown; (Ra)) [Compound Z813]
- IC50 [1]: 0.08 nM
- CL ([2]; dose 1 mg/kg): 14.9 mL/min/kg
- AUC [2]: 1643 ng·h/mL
- Cmax [2]: 401 ng/mL

Structure (SMILES): CCn1c(-c2cc(C#CCN3CCC3)cnc2[C@H](C)OC)c2c3cc(ccc31)-c1csc(n1)C[C@H](NC(=O)[C@H]1[C@H](C)[C@@H]1C)C(=O)N1CCC[C@H](N1)C(=O)OCC(C)(C)C2 (single isomer, unassigned) [Compound Z554]
- IC50 ([1]; Homo sapiens, ASPC1, 3 h): 0.67 nM
- clearance ([2]; Sprague-Dawley, rat, plasma, dose 0.5 mg/kg): 2.52 mL/min/kg
- AUC [2, 3]: 16600 ng·h/mL
- Cmax [2, 4]: 2780 ng/mL

Structure (SMILES): CO[C@@H](C)c1ncc(C#CCN2CCCOCC2)cc1-c1c2c3cc(ccc3n1CC(F)(F)F)-c1csc(n1)C[C@H](NC(=O)[C@H]1[C@H](C)[C@@H]1C)C(=O)N1CCC[C@H](N1)C(=O)OCC(C)(C)C2 (atropisomer, axis not shown; (Ra)) [Compound Z700, N-((6^3S,4S,Z)-1^1-(2,2,2-trifluoroethyl)-(Ra)-1^2-(2-((S)-1-methoxyethyl)-(5-(3-(1,4-oxazepan-4-yl)prop-1-yn-1-yl))-pyridin-3-yl)-10,10-dimethyl-5,7-dioxo-6^1,6^2,6^3,6^4,6^5,6^6-hexahydro-1^1H-8-oxa-2(4,2)-thiazola-1(5,3)-indola-6(1,3)-pyridazinacycloundecaphane-4-yl)-2,3-dimethylcyclopropane-1-carboxamide]
- IC50 [1]: 0.16 nM
- CL ([2]; dose 1 mg/kg): 7.66 mL/min/kg
- AUC [2]: 3259 ng·h/mL
- Cmax [2]: 681 ng/mL

Structure (SMILES): CCn1c(-c2cc(C#CCN(C)CCOC)cnc2[C@H](C)OC)c2c3cc(ccc31)-c1csc(n1)C[C@H](NC(=O)[C@H]1[C@H](C)[C@@H]1C)C(=O)N1CCC[C@H](N1)C(=O)OCC(C)(C)C2 (atropisomer, axis not shown; (Ra)) [Compound Z788]
- IC50 [1]: 0.38 nM
- CL ([2]; dose 1 mg/kg): 3.58 mL/min/kg
- AUC [2]: 8529 ng·h/mL
- Cmax [2]: 2110 ng/mL

Structure (SMILES): CCn1c(-c2cc(C#CCN3CCC(C(F)(F)F)CC3)cnc2[C@H](C)OC)c2c3cc(ccc31)-c1csc(n1)C[C@H](NC(=O)[C@H]1[C@H](C)[C@@H]1C)C(=O)N1CCC[C@H](N1)C(=O)OCC(C)(C)C2 (atropisomer, axis not shown; (Ra)) [Compound Z778]
- IC50 ([1]; Homo sapiens, ASPC1, 3 h): 1.53 nM
- clearance [2, 5]: 5.31 mL/min/kg
- AUC [2, 3]: 4020 ng·h/mL
- Cmax [2, 4]: 702 ng/mL

Structure (SMILES): CCn1c(-c2cc(C#CCN3CCCOCC3)cnc2[C@H](C)OC)c2c3cc(ccc31)-c1csc(n1)C[C@H](NC(=O)[C@H]1[C@H](C)[C@@H]1C)C(=O)N1CCC[C@H](N1)C(=O)OCC(C)(C)C2 (single isomer, unassigned) [Compound Z504]
- IC50 ([1]; Homo sapiens, ASPC1, 3 h): 0.16 nM
- clearance [2, 5]: 4 mL/min/kg
- AUC [2, 3]: 5320 ng·h/mL
- Cmax [2, 4]: 605 ng/mL

Structure (SMILES): CCn1c(-c2cc(C#CCN3CCCOCC3)cnc2[C@H](C)OC)c2c3cc(ccc31)-c1csc(n1)C[C@H](NC(=O)CC(C)C)C(=O)N1CCC[C@H](N1)C(=O)OCC(C)(C)C2 (single isomer, unassigned) [Compound Z803]
- IC50 ([1]; Homo sapiens, ASPC1, 3 h): 0.85 nM
- clearance [2, 5]: 1.83 mL/min/kg
- AUC [2, 3]: 8400 ng·h/mL
- Cmax [2, 4]: 1110 ng/mL
